From US20170327559A1, “VIRAL INACTIVATION USING IMPROVED SOLVENT-DETERGENT METHOD” (Baxalta Incorporated, priority 2010, published 2017)
Where “and” joins values, the source holds several entries; their conditions need not be identical. Identical values can stand only once. Like-named read-outs stand apart in the source and are kept apart here.

Columns and labels:
[1] = Temperature effects on solvent/detergent components before and after 0.2 μm filtration (HPLC); format: physicochemical
Experimental: In order to evaluate the influence of a lower temperature on the mixing time of solvent/detergent components, 50 mL solvent/detergent solutions were prepared by adding 0.3% (v/v) TNBP, 1.0% (v/v) polyoxyethylene octyl phenyl ether (TRITON® X-100) and 0.3% (v/v) polysorbate 80 sorbitan monooleate (TWEEN® 80) and stirring at 4±2° C. for 10, 20, or 30 minutes. As the solvent/detergent solution already contained 0.1% polysorbate 80 sorbitan monooleate (TWEEN® 80), the final concentration for this compound was of 0.4%. The concentration of TNBP and polyoxyethylene octyl phenyl ether (TRITON® X-100) were determined simultaneously by using C18 RP-HPLC with a refractive index detector (RID). The concentration of polysorbate 80 sorbitan monooleate (TWEEN® 80) was determined by C1 RP-HPLC using an evaporative light scattering detector (ELSD). For the HPLC analysis of TNBP and polyoxyethylene octyl phenyl ether (TRITON® X-100), an isocratic elution is employed using 68% methanol in water. In the assay of polysorbate 80 sorbitan monooleate (TWEEN® 80), a gradient elution from 60% methanol in water to 100% methanol is used.
To evaluate the impact of the temperature toward a potential retention of solvent/detergent conponents during the filtration step, 50 mL solvent/detergent solutions were prepared by adding 0.3% (v/v) TNBP, 1.0% (v/v) polyoxyethylene octyl phenyl ether (TRITON® X-100) and 0.3% (v/v) polysorbate 80 sorbitan monooleate (TWEEN® 80), stirring at 4±2° C. for 30 minutes and the concentration of each component was measured as described above. The solvent/detergent solutions were then processed under three different temperature conditions: 22.5° C. with a warm up period of about 8 hours; 22.5° C. with a warm up period of about 2 hours; and 4° C. without any warm-up or preheating step. At the end of the incubation period, samples were filtrated through a 0.2 μm filter and TNBP, polyoxyethylene octyl phenyl ether (TRITON® X-100) and polysorbate 80 sorbitan monooleate (TWEEN® 80) concentrations were measured by HPLC.

polysorbate 80 sorbitan monooleate [Tween 80]
S/D component concentration after 0.2 μm filtration, Mean ([1]; 4° C./2 H, n = 3): 0.41%
S/D component concentration before 0.2 μm filtration, Mean ([1]; 4° C./2 H, n = 3): 0.40%
S/D component concentration after 0.2 μm filtration ([1]; 4° C./2 H, runs 1-3): 0.40% and 0.41%
S/D component concentration before 0.2 μm filtration ([1]; 4° C./2 H, runs 1-3): 0.38% and 0.40% and 0.42%
S/D component concentration after 0.2 μm filtration, Mean ([1]; 22.5° C./2 H, n = 3): 0.41%
S/D component concentration before 0.2 μm filtration, Mean ([1]; 22.5° C./2 H, n = 3): 0.41%
S/D component concentration after 0.2 μm filtration ([1]; 22.5° C./2 H, runs 1-3): 0.38% and 0.44% and 0.41%
S/D component concentration before 0.2 μm filtration ([1]; 22.5° C./2 H, runs 1-3): 0.41% and 0.42%
S/D component concentration after 0.2 μm filtration, Mean ([1]; 22.5° C./8 H, n = 3): 0.39%
S/D component concentration before 0.2 μm filtration, Mean ([1]; 22.5° C./8 H, n = 3): 0.38%
S/D component concentration after 0.2 μm filtration ([1]; 22.5° C./8 H, runs 1-3): 0.40% and 0.39% and 0.37%
S/D component concentration before 0.2 μm filtration ([1]; 22.5° C./8 H, runs 1-3): 0.33% and 0.39% and 0.42%
S/D component concentration, Mean (mean of 10, 20, 30 min stirring at 4±2° C.): 0.42 ± 0.02%
S/D component concentration (stirring at 4±2° C. for 10 min): 0.42%
S/D component concentration (stirring at 4±2° C. for 20 min): 0.40%
S/D component concentration (stirring at 4±2° C. for 30 min): 0.44%

polyoxyethylene octyl phenyl ether [TRITON X-100]
S/D component concentration after 0.2 μm filtration [1]: 1.00% and 0.90% and 1.10%
S/D component concentration after 0.2 μm filtration, Mean [1]: 1.03% and 0.97% and 1.00%
S/D component concentration before 0.2 μm filtration [1]: 0.80% and 1.00%
S/D component concentration before 0.2 μm filtration, Mean [1]: 1.00% and 0.93%
S/D component concentration: 1.2% and 1.1%
S/D component concentration, Mean: 1.2 ± 0.06%
